The source of these data is patent US20060183716A1, “2-Methylene-19-nor-(20S-24S)-1alpha,25-dihydroxyvitamin D2” (Wisconsin Alumni Research Foundation, priority 2005, published 2006).

Assay [1] addresses T1, vitamin D receptors (Homo sapiens, UniProt P11473).
T1 sequence (P11473 1-427): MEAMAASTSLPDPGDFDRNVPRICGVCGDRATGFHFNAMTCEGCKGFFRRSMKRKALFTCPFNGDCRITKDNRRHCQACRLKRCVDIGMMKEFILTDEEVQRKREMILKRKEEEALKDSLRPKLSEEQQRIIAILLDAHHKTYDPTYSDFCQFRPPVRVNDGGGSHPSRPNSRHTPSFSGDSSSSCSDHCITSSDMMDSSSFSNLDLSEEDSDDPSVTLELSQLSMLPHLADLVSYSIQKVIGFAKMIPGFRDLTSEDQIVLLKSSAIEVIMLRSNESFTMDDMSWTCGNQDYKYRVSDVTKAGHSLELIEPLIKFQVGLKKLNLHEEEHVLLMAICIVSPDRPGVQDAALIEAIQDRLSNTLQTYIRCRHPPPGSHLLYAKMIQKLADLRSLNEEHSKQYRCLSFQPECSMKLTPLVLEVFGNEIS
As to conditions: as described in the '352, '861 and '622 patents; cited from earlier work.

Assay [2] concerns cell differentiation. As to conditions: as described in the '352, '861 and '622 patents; cited from earlier work.
The test system of assay [3] is calcemic activity. As to conditions: as described in the '352, '861 and '622 patents; cited from earlier work.
Assay [4] has as its target T2, full-length recombinant rat vitamin D receptor (Rattus norvegicus, UniProt P13053).
T2 construct: Full-length recombinant rat receptor was expressed in E. coli BL21(DE3) Codon Plus RIL cells; histidine tag (C); made in house; host or cells: E. coli BL21(DE3) Codon Plus RIL
T2 sequence (P13053 1-423): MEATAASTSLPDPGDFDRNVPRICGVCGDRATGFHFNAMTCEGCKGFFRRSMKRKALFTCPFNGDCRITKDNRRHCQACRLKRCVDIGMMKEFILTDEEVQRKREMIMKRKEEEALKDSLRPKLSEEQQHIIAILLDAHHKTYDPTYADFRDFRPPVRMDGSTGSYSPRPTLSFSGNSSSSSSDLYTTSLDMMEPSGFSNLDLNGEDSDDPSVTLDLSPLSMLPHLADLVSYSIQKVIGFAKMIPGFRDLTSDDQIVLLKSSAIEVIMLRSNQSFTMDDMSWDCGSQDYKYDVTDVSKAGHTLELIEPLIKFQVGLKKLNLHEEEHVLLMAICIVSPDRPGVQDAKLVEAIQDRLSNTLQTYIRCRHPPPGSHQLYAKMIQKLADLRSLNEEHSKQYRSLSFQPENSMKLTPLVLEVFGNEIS
The experiment in a line: Vitamin D receptor competitive binding with [3H]-1,25-(OH)2-D3. As to conditions: competition with [3H]-1,25-(OH)2-D3; compared with 1,25(OH)2D3; FIG. 1. The text has this:
FIG. 1 is a graph comparing the relative activity of (20S/24S) 2-MD2 and 1,25(OH)2D3 to compete for binding with [^3H]-1,25-(OH)2-D3 to the full-length recombinant rat vitamin D receptor.
Full-length recombinant rat receptor was expressed in E. coli BL21(DE3) Codon Plus RIL cells and purified to homogeneity using two different column chromatography systems. The first system was a nickel affinity resin that utilizes the C-terminal histidine tag on this protein. The protein that was eluted from this resin was further purified using ion exchange chromatography (S-Sepharose Fast Flow). Aliquots of the purified protein were quick frozen in liquid nitrogen and stored at −80° C. until use. For use in binding assays, the protein was diluted in TEDK50 (50 mM Tris, 1.5 mM EDTA, pH 7.4, 5 mM DTT, 150 mM KCl) with 0.1% Chaps detergent. […]
Unlabeled ligands were dissolved in ethanol and the concentrations determined using UV spectrophotometry (1,25(OH)2D3:molar extinction coefficient=18,200 and λmax=265 nm; Analogs: molar extinction coefficient=42,000 and λmax=252 nm). […]
Radiolabeled and unlabeled ligands were added to 100 mcl of the diluted protein at a final ethanol concentration of ≦10%, mixed and incubated overnight on ice to reach binding equilibrium. […] Total binding was determined from the tubes containing only radiolabeled ligand.

Assay [5] has as its system Human promyelocytic leukemia (HL60) cells. Put plainly: HL-60 cell differentiation (nitro blue tetrazolium reduction). It is filed as cell-based. As to conditions: compared with 1,25(OH)2D3; four days; FIG. 2. On the procedure: FIG. 2 is a graph comparing the percent HL-60 cell differentiation as a function of the concentration of (20S/24S) 2-MD2 with that of 1,25(OH)2D3.
The study drugs were dissolved in ethanol and the concentrations determined using UV spectrophotometry. Serial dilutions were prepared so that a range of drug concentrations could be tested without changing the final concentration of ethanol (≦0.2%) present in the cell cultures.
Human promyelocytic leukemia (HL60) cells were grown in RPMI-1640 medium containing 10% fetal bovine serum. The cells were incubated at 37° C. in the presence of 5% CO2.
HL60 cells were plated at 1.2×10^5 cells/ml. Eighteen hours after plating, cells in duplicate were treated with drug. Four days later, the cells were harvested and a nitro blue tetrazolium reduction assay was performed (Collins et al., 1979; J. Exp. Med. 149:969-974). The percentage of differentiated cells was determined by counting a total of 200 cells and recording the number that contained intracellular black-blue formazan deposits. Verification of differentiation to monocytic cells was determined by measuring phagocytic activity (data not shown).

Assay [6] deals with 24-hydroxylase (24Ohase) gene promoter in ROS 17/2.8 (bone) cells. The experiment in a line: In vitro transcription assay (24-hydroxylase promoter luciferase reporter). The class given is cell-based. As to conditions: ROS 17/2.8 cells, sixteen hours after dosing, FIG. 3. On the procedure: FIG. 3 is a graph comparing the in vitro transcription activity of (20S/24S) 2-MD2 with that of 1,25(OH)2D3.
Transcription activity was, measured in ROS 17/2.8 (bone) cells that were stably transfected with a 24-hydroxylase (24Ohase) gene promoter upstream of a luciferase reporter gene (Arbour et al., 1998). Cells were given a range of doses. Sixteen hours after dosing the cells were harvested and luciferase activities were measured using a luminometer. RLU=relative luciferase units.
On the technique in general: In a reporter assay the amount or activity of a reporter protein is the signal.

Assay [7] relates to bone calcium mobilization. The experiment in a line: Bone calcium mobilization (serum calcium). The class given is in vivo, Sprague-Dawley rats. As to conditions: rats on 0.02% Ca diet, four consecutive ip doses; compared with 1,25(OH)2D3; FIG. 4. An excerpt: (§1) FIG. 4 is a bar graph comparing the bone calcium mobilization activity of (20S/24S) 2-MD2 with that of 1,25(OH)2D3. Male, weanling Sprague-Dawley rats were placed on Diet 11 (0.47% Ca) diet +AEK for one week followed by Diet 11 (0.02% Ca) +AEK for 3 weeks. The rats were then switched to a diet containing 0.47% Ca for one week followed by two weeks on a diet containing 0.02% Ca. Dose administration began during the last week on 0.02% calcium diet. Four consecutive ip doses were given approximately 24 hours apart. Twenty-four hours after the last dose, blood was collected from the severed neck and the concentration of serum calcium determined as a measure of bone calcium mobilization. The first 10 cm of the intestine was also collected for intestinal calcium transport analysis using the everted gut sac method.

The test system of assay [8] is intestinal calcium transport. The experiment in a line: Intestinal calcium transport (everted gut sac method). As to conditions: rats on 0.02% Ca diet, four consecutive ip doses, FIG. 5. The class given is in vivo, Sprague-Dawley rats.
Excerpt: as §1, with “FIG. 5 is a” for “FIG. 4 is a”, “comparing the intestinal calcium transport” for “comparing the bone calcium mobilization”, “intestinal calcium transport activity of” for “bone calcium mobilization activity of”

With “1α-hydroxy-2-methylene-19-nor-(20S)-homopregnacalciferol”, the “binding activity to vitamin D receptors” value in assay [1] is recorded as “relatively high”. Besides, the cell differentiation activity entry in assay [2] is “relatively high”. Also, the “calcemic activity as compared to 1α,25-dihydroxyvitamin D3” value in assay [3] was “little if any”.
Turning to `C=C1[C@H](O)CC(=C/C=C2\CCC[C@]3(C)C([C@@H](C)/C=C/[C@H](C)C(C)(C)O)CC[C@@H]23)C[C@H]1O` (stereo in doubt) [2-methylene-19-nor-(20S-24S)-1α,25-dihydroxyvitamin D2], in assay [4], the “binding to the vitamin D receptor relative to native hormone” value is “almost equal to the native hormone”. The “inducing differentiation of HL-60 cells relative to native hormone” value in assay [5] is recorded as “almost equal to the native hormone”. In assay [6], the “causing transcription relative to 1,25-(OH)2D3” value is on record as “slightly more effective than 1,25-(OH)2D3”. The “bone calcium mobilizing activity” value in assay [7] is “comparable to 1,25(OH)2D3”. Besides, in assay [8], the intestinal calcium transport entry was “does retain some ability to elevate intestinal calcium transport”.
As to `C=C1[C@H](O)CC(=C/C=C2\CCC[C@]3(C)[C@@H](CC)CC[C@@H]23)C[C@H]1O` [1α-Hydroxy-2-methylene-19-nor-pregnacalciferol], the “binding activity to vitamin D receptors” value in assay [1] is “relatively high”. The cell differentiation activity entry in assay [2] is reported as “relatively high”. In assay [3], the “calcemic activity as compared to 1α,25-dihydroxyvitamin D3” value is reported as “little if any”.
As for “1α-hydroxy-2-methylene-19-nor-bishomopregnacalciferol”, the “binding activity to vitamin D receptors” value in assay [1] is given as “relatively high”. For the same compound, the cell differentiation activity result in assay [2] is “relatively high”. Besides, the “calcemic activity as compared to 1α,25-dihydroxyvitamin D3” value in assay [3] is listed as “little if any”.
